Laboratory results: PubChem BioAssay (NCI)
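Step 1: Grow cells in 96-well plates. Step 2: Expose to compound for 48 hours at 5 concentrations. Step 3: Interpolate endpoints linearly; if unreached, use highest concentration. GI50 is the concentration that inhibits growth by half. TGI: concentration producing complete growth inhibition.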

Experiments:
Experiment in all cases: growth of human tumour cells (NCI), 48 h
SF-539 CNS = system: SF-539 CNS
SK-MEL-5 melanoma = system: SK-MEL-5 melanoma
TK-10 renal = system: TK-10 renal
HCC-2998 colon = system: HCC-2998 colon
NCI-H226 lung = system: NCI-H226 lung
RPMI-8226 leukemia = system: RPMI-8226 leukemia
NCI-H522 lung = system: NCI-H522 lung
UACC-257 melanoma = system: UACC-257 melanoma
NCI/ADR-RES ovarian = system: NCI/ADR-RES ovarian
MDA-N = system: MDA-N

Compound	GI50 (SF-539 CNS) [µM]	TGI (SF-539 CNS) [µM]	GI50 (SK-MEL-5 melanoma) [µM]	TGI (SK-MEL-5 melanoma) [µM]	GI50 (TK-10 renal) [µM]	TGI (TK-10 renal) [µM]	GI50 (HCC-2998 colon) [µM]	TGI (HCC-2998 colon) [µM]	GI50 (NCI-H226 lung) [µM]	TGI (NCI-H226 lung) [µM]	GI50 (RPMI-8226 leukemia) [µM]	TGI (RPMI-8226 leukemia) [µM]	GI50 (NCI-H522 lung) [µM]	TGI (NCI-H522 lung) [µM]	GI50 (UACC-257 melanoma) [µM]	TGI (UACC-257 melanoma) [µM]	GI50 (NCI/ADR-RES ovarian) [µM]	TGI (NCI/ADR-RES ovarian) [µM]	TGI (MDA-N) [µM]
COc1cc2c(cc1-c1c(C)noc1C)cc(C)c(=O)n2Cc1ccccn1	0.983	13.2	1.99	10.7	0.34	18.3	1.79	17.3	1.59	> 100	0.307	3.86	0.542	10.9	2.18	> 100	1.34	> 100	
O=[N+]([O-])/C(C(Cl)=C(Cl)Cl)=C(\Nc1cccc2cccnc12)SCc1ccccc1		32.6						36.7		48.6		> 100				49.2		51.7	> 100
COCOc1ccc(Cn2c(=O)n(C)c(=O)c3c2ncn3C)cc1[N+](=O)[O-]		> 100				> 100		> 100		> 100		> 100		> 100		> 100			
O=C1/C(=C\c2cccc(Oc3ccccc3)c2)S(=O)(=O)C(c2ccccc2)N1Cc1ccccc1 (centres undefined)		> 100		39.3		> 100		82.5						33.7		62.2		45	95.5
COc1nc(C#CCC(C)O)nc(OC)n1 (centres undefined)		59.2		34.7		57.7								34		> 100		43.5	> 100
COc1ccc(CC(O)CN2CCOCC2)cc1 (centres undefined)				> 100		> 100				> 100				> 100		> 100		> 100	> 100
Cc1c(C(=O)CSc2nc3ccccc3c(=O)n2-c2ccccc2)c(=O)n(-c2ccccc2)n1C		> 100		> 100		> 100		> 100		69.2		> 100		79.5		> 100			
O=C(/C=C/c1ccsc1)c1ccsc1		37.9		35.1		74.4		35.6		39		47.2				39.6		> 100	49.7
CC(C(=O)n1nnc2ccccc21)N(c1ccccc1)c1ccccc1 (centres undefined)		> 100		> 100		> 100		> 100		> 100		> 100		> 100		> 100			
Cc1c(S(=O)(=O)/N=C(\N)Nc2ccc(Cl)cc2)sc2ccc(Cl)cc12		> 100		> 100		39.5				44		> 100		30.1		40.4		47.1	47.1
C1=CC2=CC=CC3c4nc5ccc6ccccc6c5nc4C(=C1)C23 (centres undefined)		> 100		> 100		> 100		> 100		> 100		> 100				> 100		> 100	> 100
O=C(NC(Cc1ccc(I)cc1)C(=O)O)c1ccc(I)cc1 (centres undefined)		> 100		> 100				> 77.3		> 100		> 100		> 100		> 100		> 100	
COc1cc([N+](=O)[O-])c(OC)cc1-c1nc2sc(Cl)cn2c1/C=N/Nc1ccccn1	9.7	16.8	12.8	36	15.6	> 50			12.1	48.8	30.1	> 50	> 50	> 50	> 50	> 50			
CO[C@]12CC(=O)C3(C(C[C@H]4CC5CC=C6C[C@@H](OC(C)=O)CC[C@]6(OC(C)=O)C5C[C@@]43C)C1)C1C[C@H]3[C@@H]4CC=C5C[C@@H](OC(C)=O)CC[C@]5(OC(C)=O)[C@H]4CC[C@]3(C)C12 (some centres undefined)		37.2		14.7		> 100		41.6				> 100		31.7		> 100		51.3	30.6
O=C1CN2C(c3ccccc3)=NN(c3ccc([N+](=O)[O-])cc3)C2(c2ccccc2)c2cc(Cl)ccc2N1CC1CC1 (centres undefined)		> 100		> 100		> 100		> 100		> 100		> 100		> 100		> 100		> 100	
CC(=O)OCC1OC(n2cc([N+](=O)[O-])c(=O)[nH]c2=O)C(OC(C)=O)C(OC(C)=O)C1OC(C)=O (centres undefined)				> 100		> 100		> 100		> 100		> 100		> 100		> 100			
CC(C)(C)NC(=O)/C(=C\Sc1ccccc1)c1ccc2c(c1)OCO2		> 100		32.8		> 100		> 100				94.4		43.3		74.5		97.5	59.8
Cc1cn(C2OC(C)(CO)C(O)C2O)c(=O)[nH]c1=O (centres undefined)		> 100		> 100		> 100		> 100				> 100		> 100					
N#CCCN(CCC#N)c1ccc(/C=C2\N=C(c3ccccc3)N(c3ccc(Cl)cc3)C2=O)cc1		> 100		> 100		> 100				> 100		> 100		> 100		> 100		> 100	> 100
CS(=O)(=O)OCCn1c(=O)n(CCOS(C)(=O)=O)c(=O)n(CCOS(C)(=O)=O)c1=O		> 100		> 100		> 100		> 100		> 100		> 100				> 100		> 100	> 100
O=S(=O)(O)c1cc2ccc1/C=C\c1ccc(cc1S(=O)(=O)O)N=Nc1ccc(c(S(=O)(=O)O)c1)/C=C\c1ccc(cc1S(=O)(=O)O)N=N2		> 100		> 100				> 100		> 100		> 100		> 100		> 100		> 100	
CCOc1cc(C2CC(c3ccc(NS(=O)(=O)c4cc([N+](=O)[O-])ccc4C)cc3)=NN2C(=O)c2ccccc2)ccc1O (centres undefined)		52.8		37.8		54.2				> 100		> 100		64.5		91.5		> 100	70.6
